Data from US20250186405A1, “Compound For Use In Treating Narcolepsy” (Alkermes, Inc., priority 2023, published 2025).
Values joined by “and” are separate entries in the source; they are usually repeats but may differ in a detail not shown here. Equal values may be shown once. Read-outs that look alike come from different tables or passages of the source.

Columns and labels:
Format in all cases: in vivo, human
[1] = Part 5 NT2: plasma pharmacokinetics, single doses; conditions: for Cmax / AUC(0-t) / Tmax: human, oral; for Cmax / AUC(0-t): geometric mean; for AUC(0-t): read-out: AUC0-24; for Tmax: plasma
Experimental: Treatments were administered under fasted state. Dose levels were as follows:
Subjects were randomized to 1 of 4 sequences.
Blood samples (up to 5 mL per sample) were collected for PK analysis of Compound A and its metabolite(s). The actual time of sample collection was recorded. The PK samples of the subjects randomized to placebo treatment were not analyzed. Any remaining plasma PK samples were used to explore the presence of any additional metabolites and/or biomarkers.
Plasma and urine concentrations of Compound A and its metabolite(s) were measured using a validated high-performance liquid chromatography with tandem mass spectrometry.
The PK population was used for summaries of plasma Compound A and its metabolite(s) concentrations and for analyses, summaries, and listing of PK parameters. Dose proportionality for Cmax, AUC0-t, and AUC0-∞ was evaluated using a linear model of logarithmically transformed values to assess the slope parameter, and the 95% CI for the slope was estimated. Where a 95% CI of the slope includes 1, it was considered as evidence of dose proportionality for that PK parameter.

[2] = tested on: subjects with narcolepsy type-2 (NT2); experiment: Part 5 NT2: Karolinska Sleepiness Scale (KSS); conditions: for Change From Day −1 in Average Karolinska Sleepiness Scale, LSM difference vs placebo: NT2, N = 9; for Change From Day −1 in Average Karolinska Sleepiness Scale, LSM: NT2, N = 9, average of 1, 2, 4, 6, 8 h
Experimental: At points within the study, subjects were asked to rate their sleepiness using the KSS with regard to the level of sleepiness they experienced over the past 5 minutes.
The KSS is a validated, self-reported outcome measure of subjective sleepiness. The KSS was developed as a one-dimensional measure of sleepiness and has been validated against assessments like EEG and electrooculography activity (Akerstedt and Gillberg 1990). The KSS is comprised of a single question that asks the subject to rate their sleepiness in the immediately preceding 5 minutes on a 9-point scale where 1=extremely alert and 9=very sleepy, great effort to keep awake, fighting sleep. The KSS takes approximately 10 to 15 seconds to complete. Thus, the KSS is well suited for repeated measurement at short intervals as it assesses situational sleepiness within a short timeframe.
The PD parameters in the POC evaluation (e.g., changes from baseline in sleep latency on MWT, number of errors on SART and level of sleepiness on KSS at matched time points) were summarized using descriptive statistics for each time point by dose level.

[3] = tested on: subjects with idiopathic hypersomnia (IH); experiment: Part 6 IH: Maintenance of Wakefulness Test (MWT) sleep latency; conditions: for LS mean difference vs placebo in change from baseline, average MWT sleep latency: 2-8 hours post-dose; for Change from Day −1 in Average Sleep Latency on the MWT, LSM / Change from Day −1 in Average Sleep Latency on the MWT, LSM difference vs placebo: N = 8; for Average Sleep Latency on the MWT, Change from Day −1, Mean (SD) / Average Sleep Latency on the MWT, Change from Day −1, Median / Average Sleep Latency on the MWT, Dosing Day, Mean (SD) / Average Sleep Latency on the MWT, Dosing Day, Median: n = 8
Experimental: The Treatment Visit (Visit 2) began on Day −2, when each subject's eligibility criteria were reviewed, and eligible subjects were admitted to the clinic. Screening assessments and eligibility criteria review continued after admission until Day 1, prior to randomization and dosing. On Day −1, approximately 25 hours prior to study drug administration (on Day 1), baseline assessments for Maintenance of Wakefulness Test (MWT) began and were collected in a series of trials over approximately 10 hours.
At specified time points (Parts 5 and 6), MWT assessments were performed and took up to 40 minutes to complete. During the MWT trials, subjects were seated in a bed or reclining chair in a darkened room with their back and head supported such that their neck is not uncomfortably flexed or extended. Subjects were instructed to sit still and remain awake for as long as possible during each 40-minute trial. If the subject fell asleep during a trial, they were awakened, and the trial was terminated. […] Upon completion of the trial, the subject returned to a normal environment/ambiance and remained awake (and were awakened if they fall asleep) until the next trial.
Once Parts 5 and 6 were completed, the EEG data recorded during the MWT, as well as the technician notes, were transferred to the EEG vendor for further analysis. Technician notes were also maintained for transfer to Sponsor at the end of the study. A precise assessment of sleep latency was conducted by an experienced sleep scorer from the EEG vendor, and spectral analysis was performed on the EEG data recorded during MWT to assess absolute and relative powers in standard frequency bands (i.e., qEEG). All raw data and analysis results were transferred to the Sponsor.
For the changes from baseline in average sleep latency across the first 4 sessions of the MWT, descriptive statistics were provided by dose level. Mixed model with repeated measure (MMRM) for the 4-period crossover design were conducted with the change from baseline as a dependent variable, and the dose level and the period as fixed factors. The differences in the least square means between each Compound A dose level and the placebo (each Compound A dose level—the placebo), and the 2-sided CIs were provided.
Evaluation of Compound A effects on average sleep latency across 4 timepoints of MWT (2-, 4-, 6-, and 8-hours post-dose) has been conducted at each of the crossover periods (Days 1, 3, 5 and 7), testing placebo, and active dose levels of 5, 12, and 25 mg in the patients with IH compared to placebo. At pre-dose baseline on Day −1, MWT assessment was taken at similar times (2-, 4-, 6-, and 8-hours) as planned on dosing days assuming a dosing time of approximately 9 AM. Mean (SD) of baseline MWT average across the 4 time points on Day −1 was 22.61 (9.294), with high variability observed for IH subjects.

**Q.** With `CS(=O)(=O)N[C@H]1CCCN2C(=O)COc3ccccc3C3CCC(CC3)OCC12` (stereo partly drawn) [Compound A, N-[(4S,4aR,7α,10α)-1,2,3,4,4a,5,7,8,9,10,16,17-dodecahydro-17-oxo-7,10-ethanopyrido[1,2-d][1,7,4]benzodioxaazacyclotridecin-4-yl]methanesulfonamide] as the molecule, how does the “fold change in AUC and Cmax for 5-fold change in dose” value ([1]; NT2 patients, 5 to 25 mg) read?
**A.** approximately 3 fold

**Q.** And the Cmax ([1]; 5 mg, NT2, plasma, n = 8)?
**A.** 13.4 ng/mL

**Q.** What about the AUC(0-t) ([1]; 5 mg, NT2, plasma, n = 8) of the same molecule?
**A.** 78.1 ng·h/mL

**Q.** What about the Cmax ([1]; 12 mg, NT2, plasma, n = 8) of the same molecule?
**A.** 24 ng/mL

**Q.** And the AUC(0-t) ([1]; 12 mg, NT2, plasma, n = 8)?
**A.** 185 ng·h/mL

**Q.** What about the Cmax ([1]; 25 mg, NT2, plasma, N = 9) of the same molecule?
**A.** 38 ng/mL

**Q.** And the AUC(0-t) ([1]; 25 mg, NT2, plasma, N = 9)?
**A.** 231 ng·h/mL

**Q.** And the Tmax ([1]; 5 mg, NT2, plasma, median, n = 8, read-out: Tmax)?
**A.** 1.75 h

**Q.** And the Tmax ([1]; 12 mg, NT2, plasma, median, n = 8, read-out: Tmax)?
**A.** 2 h

**Q.** What about the Tmax ([1]; 25 mg, NT2, plasma, median, N = 9, read-out: Tmax) of the same molecule?
**A.** 3 h

**Q.** And the Tmax ([1]; 25 mg, NT2 patients, 5, 12, 25 mg, read-out: median tmax, range across doses)?
**A.** 1.75 to 3 h

**Q.** What about the “Change From Day −1 in Average Karolinska Sleepiness Scale, LSM difference vs placebo” value ([2]; 5 mg) of the same molecule?
**A.** −0.31

**Q.** And the “Change From Day −1 in Average Karolinska Sleepiness Scale, LSM” value ([2]; 5 mg)?
**A.** −0.68

**Q.** And the “Change From Day −1 in Average Karolinska Sleepiness Scale, LSM difference vs placebo” value ([2]; 12 mg)?
**A.** −0.60

**Q.** What about the “Change From Day −1 in Average Karolinska Sleepiness Scale, LSM” value ([2]; 12 mg) of the same molecule?
**A.** −0.97

**Q.** And the “Change From Day −1 in Average Karolinska Sleepiness Scale, LSM difference vs placebo” value ([2]; 25 mg)?
**A.** −1.42

**Q.** What about the “Change From Day −1 in Average Karolinska Sleepiness Scale, LSM” value ([2]; 25 mg) of the same molecule?
**A.** −1.78

**Q.** What about the “LS mean difference vs placebo in change from Day −1, average KSS” value ([2]; NT2, 5 mg) of the same molecule?
**A.** −0.31

**Q.** And the “LS mean difference vs placebo in change from Day −1, average KSS” value ([2]; NT2, 12 mg)?
**A.** −0.60

**Q.** What about the “LS mean difference vs placebo in change from Day −1, average KSS” value ([2]; NT2, 25 mg) of the same molecule?
**A.** −1.42

**Q.** What about the “LS mean difference vs placebo in change from baseline, average MWT sleep latency” value ([3]; 5 mg) of the same molecule?
**A.** 8.07 min and 8 min

**Q.** What about the “Change from Day −1 in Average Sleep Latency on the MWT, LSM” value ([3]; 5 mg) of the same molecule?
**A.** 6.35 min

**Q.** And the “Change from Day −1 in Average Sleep Latency on the MWT, LSM difference vs placebo” value (“Change … on the MWT, LSM difference vs placebo” for short) ([3]; 5 mg)?
**A.** 8.07 min

**Q.** And the “Average Sleep Latency on the MWT, Change from Day −1, Mean (SD)” value ([3]; 5 mg)?
**A.** 6.35 (10.348) minutes

**Q.** What about the “Average Sleep Latency on the MWT, Change from Day −1, Median” value ([3]; 5 mg) of the same molecule?
**A.** 4.75 min

**Q.** What about the “Average Sleep Latency on the MWT, Dosing Day, Mean (SD)” value ([3]; 5 mg) of the same molecule?
**A.** 28.96 (9.196) minutes

**Q.** What about the “Average Sleep Latency on the MWT, Dosing Day, Median” value ([3]; 5 mg) of the same molecule?
**A.** 29.13 min

**Q.** And the “observed mean MWT score over 8-hour period post-dose” value ([3]; 12 mg)?
**A.** ≥ 30 min

**Q.** And the “LS mean difference vs placebo in change from baseline, average MWT sleep latency” value ([3]; 12 mg)?
**A.** 11.05 min and 11 min

**Q.** What about the “Change from Day −1 in Average Sleep Latency on the MWT, LSM” value ([3]; 12 mg) of the same molecule?
**A.** 9.33 min

**Q.** And the “Change … on the MWT, LSM difference vs placebo” value ([3]; 12 mg)?
**A.** 11.05 min

**Q.** What about the “Average Sleep Latency on the MWT, Change from Day −1, Mean (SD)” value ([3]; 12 mg) of the same molecule?
**A.** 9.33 (11.468) minutes

**Q.** What about the “Average Sleep Latency on the MWT, Change from Day −1, Median” value ([3]; 12 mg) of the same molecule?
**A.** 7.00 min

**Q.** And the “Average Sleep Latency on the MWT, Dosing Day, Mean (SD)” value ([3]; 12 mg)?
**A.** 31.94 (7.814) minutes

**Q.** What about the “Average Sleep Latency on the MWT, Dosing Day, Median” value ([3]; 12 mg) of the same molecule?
**A.** 32.69 min

**Q.** And the “observed mean MWT score over 8-hour period post-dose” value ([3]; 25 mg)?
**A.** ≥ 30 min

**Q.** What about the “LS mean difference vs placebo in change from baseline, average MWT sleep latency” value ([3]; 25 mg) of the same molecule?
**A.** 17.67 min and 18 min

**Q.** And the “Change from Day −1 in Average Sleep Latency on the MWT, LSM” value ([3]; 25 mg)?
**A.** 15.95 min

**Q.** What about the “Change … on the MWT, LSM difference vs placebo” value ([3]; 25 mg) of the same molecule?
**A.** 17.67 min

**Q.** What about the “Average Sleep Latency on the MWT, Change from Day −1, Mean (SD)” value ([3]; 25 mg) of the same molecule?
**A.** 15.95 (10.946) minutes

**Q.** What about the “Average Sleep Latency on the MWT, Change from Day −1, Median” value ([3]; 25 mg) of the same molecule?
**A.** 15.31 min

**Q.** And the “Average Sleep Latency on the MWT, Dosing Day, Mean (SD)” value ([3]; 25 mg)?
**A.** 38.56 (2.821) minutes

**Q.** And the “Average Sleep Latency on the MWT, Dosing Day, Median” value ([3]; 25 mg)?
**A.** 40.00 min
